Source: PubChem BioAssay AID1794804 (Yongcheng Song lab at Baylor College of Medicine, 2022)
Active and inactive are the calls of the source.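 How the source made its calls: active means inhibition above 55% when tested at 5 µM; inactive means the rest.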

molecular target: Protein AF-9 (Homo sapiens) (UniProt P42568); test: single-concentration AF9–DOT1L binding disruption – biochemical, AlphaLISA, percent inhibition, MBP-tagged AHD (AID 1794804); settings: MBP-AF9 AHD / biotin-DOT1L peptide binding
Sequence (P42568 whole entry, looked up): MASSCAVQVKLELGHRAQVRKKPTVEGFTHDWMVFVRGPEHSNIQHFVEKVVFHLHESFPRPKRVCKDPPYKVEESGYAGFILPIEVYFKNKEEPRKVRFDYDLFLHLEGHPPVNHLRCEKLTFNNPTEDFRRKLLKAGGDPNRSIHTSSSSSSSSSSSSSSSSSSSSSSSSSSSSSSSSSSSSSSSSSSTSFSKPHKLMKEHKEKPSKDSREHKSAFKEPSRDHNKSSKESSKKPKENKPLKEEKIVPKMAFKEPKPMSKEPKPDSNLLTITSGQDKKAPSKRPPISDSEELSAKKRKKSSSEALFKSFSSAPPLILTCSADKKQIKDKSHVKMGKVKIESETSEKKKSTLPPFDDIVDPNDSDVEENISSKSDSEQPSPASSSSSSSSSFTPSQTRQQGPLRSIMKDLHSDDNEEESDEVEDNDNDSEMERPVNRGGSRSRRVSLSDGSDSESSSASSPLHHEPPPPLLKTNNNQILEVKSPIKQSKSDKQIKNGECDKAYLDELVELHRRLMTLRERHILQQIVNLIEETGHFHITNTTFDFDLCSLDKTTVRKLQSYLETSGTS

Row | Compound | outcome
1 | O=C(NCC1CCNCC1)c1cc2ccc(-c3ccc(C4CCCCC4)cc3)cc2o1 | inactive
2 | N#Cc1ccc(-c2ccc3sc(C(=O)NCC4CCNCC4)cc3c2)cc1 | inactive
3 | O=C(NCC1CCNCC1)c1cc2ccc(-c3cccc(-c4ccccc4)c3)cc2o1 | inactive
4 | O=C(NCC1CCNCC1)c1cc2ccc(-c3ccc(CCO)cc3)cc2[nH]1 | inactive
5 | N#Cc1ccc(-c2ccc3cc(C(=O)NCC4CCNCC4)oc3c2)cc1 | inactive
6 | CC(C)(C)c1ccc(-c2ccc3cc(C(=O)NCC4CCNCC4)sc3c2)cc1 | inactive
7 | O=C(NCC1CCNCC1)c1cc2ccc(-c3ccc(N4CCNCC4)cc3)cc2[nH]1 | inactive
8 | CC(C)(C)c1ccc(-c2ccc3sc(C(=O)NCC4CCNCC4)cc3c2)cc1 | inactive

same assay, conditions: MBP-AF9 AHD / biotin-DOT1L peptide binding, at 5 µM, stronger effect = higher value

Row | Compound | inhibition
9 | O=C(NCC1CCNCC1)c1cc2ccc(-c3ccc4c(c3)OCCO4)cc2o1 | 33% (inactive)
10 | CS(=O)(=O)c1ccc(-c2ccc3cc(C(=O)NCC4CCNCC4)sc3c2)cc1 | 49% (inactive)
11 | CCN(CC)c1ccc(-c2ccc3cc(C(=O)NCC4CCNCC4)sc3c2)cc1 | 25% (inactive)
12 | O=C(NCC1CCNCC1)c1cc2ccc(-c3ccc(-c4ccccc4)cc3)cc2o1 | 0% (inactive)
13 | CS(=O)(=O)c1ccc(-c2ccc3cc(C(=O)NCC4CCNCC4)oc3c2)cc1 | 19% (inactive)
14 | CC(=O)Nc1ccc(-c2ccc3cc(C(=O)NCC4CCNCC4)sc3c2)cc1 | 0% (inactive)
15 | O=C(NCC1CCNCC1)c1cc2ccc(-c3ccc(N4CCOCC4)cc3)cc2o1 | 40% (inactive)
16 | O=C(NCC1CCNCC1)c1cc2ccc(N3CCC(N4CCCC4)CC3)cc2s1 | 20% (inactive)
17 | O=C(NCC1CCNCC1)c1cc2ccc(-c3ccc(C(=O)N4CCCCCC4)cc3)cc2o1 | 0% (inactive)
18 | O=C(NCC1CCNCC1)c1cc2ccc(-c3ccc(CN4CCCCC4)cc3)cc2s1 | 45% (inactive)
19 | O=C(NCC1CCNCC1)c1cc2ccc(-c3ccc(C(=O)N4CCC(N5CCCCC5)CC4)cc3)cc2s1 | 0% (inactive)
20 | O=C(NCC1CCNCC1)c1cc2ccc(-c3ccc(Cl)cc3)cc2s1 | 50% (inactive)
21 | O=C(NCC1CCNCC1)c1cc2cc(-c3ccc(C(=O)N4CCCC4)cc3)ccc2s1 | 0% (inactive)
22 | O=C(NCC1CCNCC1)c1cc2ccc(-c3ccc(OC(F)(F)F)cc3)cc2s1 | 14% (inactive)
23 | O=C(NCC1CCNCC1)c1cc2cc(-c3ccc(-c4ccsc4)cc3)ccc2[nH]1 | 14% (inactive)
24 | CN1CCN(c2ccc(-c3ccc4cc(C(=O)NCC5CCNCC5)oc4c3)cc2)CC1 | 32% (inactive)
25 | O=C(NCC1CCNCC1)c1coc2cc(-c3ccc(N4CCCCC4)cc3)ccc12 | 59%
26 | COc1ccc(-c2ccc3cc(C(=O)NCC4CCNCC4)sc3c2)cc1 | 43% (inactive)
27 | CC(C)(C)c1ccc(Nc2ccc3sc(C(=O)NCC4CCNCC4)cc3c2)cc1 | 45% (inactive)

Row | Compound | inhibition
28 | CC(C)(C)c1cccc(-c2ccc3cc(C(=O)NCC4CCNCC4)[nH]c3c2)c1 | 17% (inactive)
29 | O=C(NCC1CCNCC1)c1c[nH]c2ccc(-c3ccc(N4CCCCC4)cc3)cc12 | 43% (inactive)
30 | O=C(NCC1CCNCC1)c1cc2cc(Nc3ccc(OC(F)(F)F)cc3)ccc2s1 | 24% (inactive)
31 | O=C(NCC1CCNCC1)c1cc2ccc(-c3ccsc3)cc2[nH]1 | 10% (inactive)
32 | CC(C)(C)c1ccc(-c2ccc3[nH]c(C(=O)NCC4CCNCC4)cc3c2)cc1 | 13% (inactive)
33 | N#CCc1ccc(-c2ccc3cc(C(=O)NCC4CCNCC4)sc3c2)cc1 | 50% (inactive)
34 | Cc1ccc(-c2ccc3cc(C(=O)NCC4CCNCC4)sc3c2)cc1 | 47% (inactive)
35 | O=C(NCC1CCNCC1)c1cc2ccc(Oc3ccc(Oc4ccc(Cl)cc4)cc3)cc2s1 | 50% (inactive)
36 | NCc1ccc(-c2ccc3cc(C(=O)NCC4CCNCC4)[nH]c3c2)cc1 | 11% (inactive)
37 | CCN(CC)c1ccc(-c2ccc3cc(C(=O)NCC4CCNCC4)oc3c2)cc1 | 30% (inactive)
38 | N#Cc1ccc(-c2ccc3[nH]c(C(=O)NCC4CCNCC4)cc3c2)cc1F | 8% (inactive)
39 | O=C(NCC1CCNCC1)c1cc2ccc(-c3ccc(N4CCOCC4)cc3)cc2s1 | 40% (inactive)
40 | NC(=O)c1ccc(-c2ccc3cc(C(=O)NCC4CCNCC4)sc3c2)cc1 | 0% (inactive)
41 | O=C(NCC1CCNCC1)c1cc2ccc(Oc3ccc(Oc4ccc(Cl)cc4)cc3)cc2o1 | 20% (inactive)
42 | O=C(NCC1CCNCC1)c1cc2ccc(-c3ccc(N4CCOCC4)cc3)cc2[nH]1 | 29% (inactive)
43 | O=C(NCC1CCNCC1)c1cc2ccc(-c3ccc(C(=O)N4CCCC4)cc3)cc2o1 | 1% (inactive)
44 | O=C(NCC1CCNCC1)c1cc2ccc(-c3ccc(C4CCCCC4)cc3)cc2[nH]1 | 31% (inactive)
45 | O=C(NCC1CCNCC1)c1cc2ccc(-c3ccc(F)cc3)cc2s1 | 21% (inactive)
46 | N#Cc1ccc(-c2ccc3cc(C(=O)NCC4CCNCC4)sc3c2)cc1F | 26% (inactive)

Row | Compound | inhibition
47 | O=C(NCC1CCNCC1)c1cc2ccc(-c3ccc(CO)cc3)cc2s1 | 0% (inactive)
48 | O=C(NCC1CCNCC1)c1cc2ccc(Nc3ccc(OC(F)(F)F)cc3)cc2o1 | 23% (inactive)
49 | O=C(NCC1CCNCC1)c1cc2ccc(N3CCC(N4CCCCC4)CC3)cc2s1 | 14% (inactive)
50 | O=C(NCC1CCNCC1)c1cc2ccc(-c3ccc(C(=O)N4CCC(N5CCCCC5)CC4)cc3)cc2o1 | 0% (inactive)
51 | O=C(NCC1CCNCC1)c1cc2cc(-c3ccc(N4CCNCC4)cc3)ccc2[nH]1 | 36% (inactive)
52 | O=C(NCC1CCNCC1)c1cc2ccc(-c3ccc(C(=O)N4CCCC4)cc3)cc2s1 | 0% (inactive)
53 | COc1ccc(Oc2ccc3cc(C(=O)NCC4CCNCC4)oc3c2)cc1 | 24% (inactive)
54 | O=C(NCC1CCNCC1)c1cc2ccc(-c3ccc(C(=O)N4CCCCC4)cc3)cc2s1 | 8% (inactive)
55 | O=C(NCC1CCNCC1)c1cc2ccc(-c3ccc(C(=O)N4CCC(N5CCCC5)CC4)cc3)cc2s1 | 5% (inactive)
56 | O=C(NCC1CCNCC1)c1cc2cc(-c3ccc(C(=O)N4CCCCC4)cc3)ccc2s1 | 31% (inactive)
57 | O=C(NCC1CCNCC1)c1cc2cc(-c3ccc(N4CCOCC4)cc3)ccc2[nH]1 | 52% (inactive)
58 | O=C(NCC1CCNCC1)c1cc2ccc(-c3ccc(C(=O)N4CCCCC4)cc3)cc2o1 | 0% (inactive)
59 | N#Cc1cccc(-c2ccc3cc(C(=O)NCC4CCNCC4)[nH]c3c2)c1 | 0% (inactive)
60 | O=C(NCc1ccc(-c2ccc3cc(C(=O)NCC4CCNCC4)oc3c2)cc1)OCc1ccccc1 | 27% (inactive)
61 | Cc1cc(C#N)ccc1-c1ccc2[nH]c(C(=O)NCC3CCNCC3)cc2c1 | 0% (inactive)
62 | O=C(NCC1CCNCC1)c1cc2ccc(-c3ccc(N4CCNCC4)cc3)cc2o1 | 38% (inactive)
63 | O=C(NCC1CCNCC1)c1cc2ccc(Nc3ccc(N4CCCCC4)cc3)cc2o1 | 93%
64 | O=C(NCC1CCNCC1)c1cc2ccc(-c3ccc(O)cc3)cc2s1 | 0% (inactive)
65 | CC(=O)c1ccc(-c2ccc3cc(C(=O)NCC4CCNCC4)[nH]c3c2)cc1 | 37% (inactive)

same assay, conditions: MBP-AF9 AHD / biotin-DOT1L peptide binding, inhibition, at 20 µM, stronger effect = higher value

Row | Compound | inhibition
66 | O=C(NCC1CCNCC1)c1cc2ccc(-c3ccc(C4CCCCC4)cc3)cc2o1 | 54%
67 | N#Cc1ccc(-c2ccc3sc(C(=O)NCC4CCNCC4)cc3c2)cc1 | 30%
68 | O=C(NCC1CCNCC1)c1cc2ccc(-c3cccc(-c4ccccc4)c3)cc2o1 | 49%
69 | O=C(NCC1CCNCC1)c1cc2ccc(-c3ccc(CCO)cc3)cc2[nH]1 | 22%
70 | N#Cc1ccc(-c2ccc3cc(C(=O)NCC4CCNCC4)oc3c2)cc1 | 38%
71 | CC(C)(C)c1ccc(-c2ccc3cc(C(=O)NCC4CCNCC4)sc3c2)cc1 | 70%
72 | O=C(NCC1CCNCC1)c1cc2ccc(-c3ccc(N4CCNCC4)cc3)cc2[nH]1 | 48%
73 | CC(C)(C)c1ccc(-c2ccc3sc(C(=O)NCC4CCNCC4)cc3c2)cc1 | 59%
